From patent US20240383874A1, “BENZENE RING DERIVATIVE, AND COMPOSITION AND PHARMACEUTICAL USE THEREOF” (Xizang Haisco Pharmaceutical Co., Ltd., priority 2020, published 2024)
Where a name gives a salt, the structure may show the parent alone.

Legend:
22RV1 cells [1] = assay: Experiment 1 on inhibiting 22RV1 cell proliferation (5 days, CellTiter-Glo); type: cell-based; details: 1% css-FBS phenol red-free medium, incubated with compound 5 days, read-out: IC50 values on proliferation inhibition of 22RV1 cells
Method: Prostate cancer cells 22RV1 were purchased from ATCC, the cell medium was RPMI 1640+10% FBS, and the cells were cultured in an incubator at 37° C. under 5% CO2. On day 1, the cells in an exponential phase were collected. With a 1% css-FBS phenol red-free medium, the cell suspension was adjusted to a corresponding concentration, plated at 2000 cells/well and incubated overnight. On day 2, compounds at different concentrations were added, and the plate was placed in the incubator and incubated for further 5 days. After the incubation was completed, according to operation instructions for a CellTiter-Glo kit (Promega, G7573), 50 μL of CTG solution, which was already pre-melted and equilibrated to room temperature, was added to each well, and the mixtures were uniformly mixed for 2 min using a microplate shaker. The plate was placed at room temperature for 10 min, and then fluorescence signal values were measured using a microplate reader (PHERAstar FSX). The results were processed according to formula (1), the survival rate of the compound at different concentrations was calculated, and the IC50 value of the compound with a survival rate of 50% was calculated using origin9.2 software with DoseResp function, wherein RLUcompound was the readout of the treated group, and RLUcontrol was the average value of the DMSO vehicle control group.

22RV1 cells [2] = assay: Experiment 2 on inhibiting 22RV1 cell proliferation (7 days, CellTiter-Glo); type: cell-based; details: Homo sapiens, 22Rv1, 168 h, 1% css-FBS phenol red-free medium, incubated with compound 7 days, read-out: IC50 values on proliferation inhibition of 22RV1 cells
Method in brief: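 Survival measured by CellTiter-Glo after 7 days of compound exposure, normalised to DMSO controls, with IC50 fitted by dose-response. Cells (22RV1, 2000/well) were seeded overnight in 1% css-FBS phenol red-free medium before dosing.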

[3] = Pharmacokinetic test in rats; type: in vivo; details: rat, po; male SD rats, single dose i.g. 5 mg/kg, plasma, 0-24 h
Method: Test objective: in this test, a single dose of test compounds was administered to SD rats intragastrically, and the concentrations of the test compounds in plasma of the rats were measured to evaluate pharmacokinetic characteristics of the test compounds in the rats.
Test animals: male SD rats, 200-250 g, 6-8 weeks old, 3 rats/compound, purchased from Chengdu Dossy Experimental Animals Co., Ltd.
(§1) Test method: on the day of the test, 3 SD rats were randomly grouped according to their body weights. The animals were fasted with water available for 12 to 14 hours one day before the administration of a test compound, and were fed 4 hours after the administration.
Sampling: before and after the administration, 0.1 mL of blood was taken from the orbits of the rats under isoflurane anesthesia, and placed in an EDTAK2 centrifuge tube. Centrifugation was carried out at 5000 rpm at 4C for […], and the plasma was collected.
Time points for plasma collection in G1 group: 0, 5 min, 15 min, 30 min, 1 h, 2 h, 4 h, 6 h, 8 h, and 24 h.
Before analysis and detection, all samples were stored at −80° C. The samples were analyzed quantitatively by LC-MS/MS.

full-length AR (AR-FL) = assay: Degradation experiment on full-length AR (AR-FL) in 22RV1 cells; type: cell-based; details: 24 h; for AR-FL Dmax % (maximum degradation rate): relative to vehicle control
Method: (§2) Prostate cancer cells 22RV1 were purchased from ATCC, the cell medium was 1640+10% FBS, and the cells were cultured in an incubator at 37° C. under 5% CO2. On day 1, the cells in an exponential phase were collected. With a 1% css-FBS phenol red-free medium, the cell suspension was adjusted to a corresponding concentration and plated into a 6-well plate at 1 mL/well and 100000 cells/well. The next day, a 1% css-FBS phenol-free medium containing the compound to be tested was added, a 1% css-FBS phenol-free medium containing 0.2% DMSO was added to one well as DMSO vehicle control, and the 6-well plate was cultured in an incubator at 37° C. under 5% CO2. After 24 h, the cells were digested with pancreatin and collected into a 1.5 mL centrifuge tube. 15 μL of RIPA lysate (containing 1×protease inhibitor cocktail) was added to each well, and the cells were lysed on ice for 15 min and then centrifuged at 12000 g and 4° C. for 10 min. The supernatant protein samples were collected, and protein quantification was performed by a BCA method. AR-FL and AR-Vs were detected using fully automatic protein expression quantitative analysis, which involved diluting the protein to be tested to 1 mg/mL. 4 μL of the diluted protein samples were added to 1 μL of 5×Master Mix (provided in the kit), and the prepared samples were denatured at 95° C. for 5 min and placed on ice for use. The primary antibodies, AR (CST, 5153S) and β-actin (CST, 3700), were diluted with Antibody Diluent II (provided in the kit) at a dilution ratio of 1:20 and 1:200, respectively. The secondary antibody was a mixed goat anti-mouse and goat anti-rabbit secondary antibody in a ratio of 1:1, and the color development solution was a mixed solution of Lumino-S and Peroxide in a ratio of 1:1. The prepared reagents were successively added to an assay plate according to instructions of the kit and detected on an instrument. Western blot band processing was performed using “Compass for SW”, a fully automatic protein expression quantitative analysis software, in which western blot bands were automatically simulated based on signal values. The degradation rate of AR-FL (3) or AR-Vs (4) relative to vehicle control at different compound concentrations was calculated according to formulas (3) and (4), wherein AR-FLcompound was the relative peak area of AR-FL in the treated group, and AR-FLsolvent was the relative peak area of AR-FL in the vehicle control group; AR-Vscompound was the relative peak area of AR-Vs in the treated group, and AR-Vssolvent was the relative peak area of AR-Vs in the vehicle control group.
(§3) DC50 calculation: the compound concentration DC50 values at which the degradation rate of AR-FL or AR-Vs was 50% were calculated using OriginPro2015 software and analyzed using DoseResp function according to formula (3) or (4).

[4] = system: AR splice variants (AR-Vs); assay: Degradation experiment on AR splice variants (AR-Vs) in 22RV1 cells; type: cell-based; details: 24 h; for AR-Vs Dmax % (maximum degradation rate): relative to vehicle control
Method: as §2, §3

[5] = Pharmacokinetic test in beagle dogs; type: in vivo; details: dog, plasma, oral; male beagle dogs, i.v. 1 mg/kg and i.g. 10 mg/kg, single dose
Method: Test objective: a single dose of test compounds was administered to beagle dogs intravenously and intragastrically, and the concentrations of the test compounds in plasma of the beagle dogs were measured to evaluate pharmacokinetic characteristics of the test compounds in the beagle dogs.
Test animals: male beagle dogs, about 8-11 kg, 6 beagle dogs/compound, purchased from Beijing Marshall Biotechnology Co., Ltd.
as §1, with “6 beagle dogs” for “3 SD rats”, “administration. The administration was performed according to Table 10.” for “administration.”
Sampling: before and after the administration, 1 ml of blood was taken from the limb veins, and placed in an EDTAK2 centrifuge tube. Centrifugation was carried out at 5000 rpm at 4° C. for 10 min, and the plasma was collected.
Time points for blood collection: 0 min, 5 min, 15 min, 30 min, 1 h, 2 h, 4 h, 6 h, 8 h, 10 h, 12 h and 24 h. Before analysis and detection, all samples were stored at −80° C. The samples were analyzed quantitatively by LC-MS/MS.

[6] = degradation rate 50% relative to vehicle control

Compound | IC50 (22RV1 cells [1]) [nM] | IC50 (22RV1 cells [2]) [nM] | AUC(0-t) [3] [ng·h/mL] | further results
O=C1CCC(N2C(=O)c3ccc(N4CCN(CC5CCN(S(=O)(=O)Nc6ccc(Cl)cc6C(=O)Nc6ccc(C(F)(F)F)cc6Cl)CC5)CC4)cc3C2=O)C(=O)N1 (stereo not drawn) [Compound 1, 5-chloro-N-(2-chloro-4-(trifluoromethyl)phenyl)-2-{[(4-[(4-(2-(2,6-dioxopiperidin-3-yl)-1,3-dioxo-2,3-dihydro-1H-isoindol-5-yl)piperazin-1-yl)methyl]piperidin-1-yl)sulfonyl]amino}benzamide] | 835 | – | – | IC50 (22RV1 cells [1]; Homo sapiens, 22Rv1, 120 h): 500 to 1500 nM
O=C1CCC(N2C(=O)c3ccc(N4CC(N5CCN(S(=O)(=O)Nc6ccc(Cl)cc6-c6nc7cc(C(F)(F)F)cc(Cl)c7[nH]6)CC5)C4)cc3C2=O)C(=O)N1 (stereo not drawn) [Compound 2, N-(4-chloro-2-(7-chloro-5-(trifluoromethyl)-1H-1,3-benzodiazol-2-yl)phenyl)-4-(1-(2-(2,6-dioxopiperidin-3-yl)-1,3-dioxo-2,3-dihydro-1H-isoindol-5-yl)azetidin-3-yl)piperazine-1-sulfonamide] | 594 | – | – | IC50 (22RV1 cells [1]; Homo sapiens, 22Rv1, 120 h): 500 to 1500 nM
O=C1CCC(N2C(=O)c3ccc(N4CCC(CN5CCN(S(=O)(=O)Nc6ccc(Cl)cc6C(=O)Nc6ccc(C(F)(F)F)cc6Cl)CC5)CC4)cc3C2=O)C(=O)N1 (stereo not drawn) [Compound 3, 5-chloro-N-(2-chloro-4-(trifluoromethyl)phenyl)-2-((4-((1-(2-(2,6-dioxopiperidin-3-yl)-1,3-dioxoisoindolin-5-yl)piperidin-4-yl)methyl)piperazine)-1-sulfonamido)benzamide] | 1240 | – | – | –
Cn1c(=O)n(C2CCC(=O)NC2=O)c2ccc(N3CCC(C4CCN(CC5CCN(c6nccc(COc7ccc(C(C)(C)c8cc(Cl)cc(C#N)c8)cc7)n6)CC5)CC4)CC3)cc21 (stereo not drawn) [Compound 88 trifluoroacetate, 3-chloro-5-(2-(4-((2-(4-((1′-(1-(2,6-dioxopiperidin-3-yl)-3-methyl-2-oxo-2,3-dihydro-1H-benzo[d]imidazol-5-yl)-[4,4′-bipiperidin]-1-yl)methyl)piperidin-1-yl)pyrimidin-4-yl)methoxy)phenyl)propan-2-yl)benzonitrile] | – | 899 | 740 ± 362 | AR-FL Dmax % (maximum degradation rate) (full-length AR (AR-FL)): 64%; AR-Vs Dmax % (maximum degradation rate) [4]: 73%
CCOc1c(Cl)cc(C(C)(C)c2ccc(OCc3ccnc(N4CCC(CN5CCC(C6CCN(c7ccc8c(c7)n(C)c(=O)n8C7CCC(=O)NC7=O)CC6)CC5)CC4)n3)cc2)cc1C#N (stereo not drawn) [Compound 94 trifluoroacetate, 3-chloro-5-(2-(4-((2-(4-((1′-(1-(2,6-dioxopiperidin-3-yl)-3-methyl-2-oxo-2,3-dihydro-1H-benzo[d]imidazol-5-yl)-[4,4′-bipiperidin]-1-yl)methyl)piperidin-1-yl)pyrimidin-4-yl)methoxy)phenyl)propan-2-yl)-2-ethoxybenzonitrile] | – | 678 | 1700 ± 335 | AR-FL Dmax % (maximum degradation rate) (full-length AR (AR-FL)): 84%; AR-Vs Dmax % (maximum degradation rate) [4]: 83%
COc1c(Cl)cc(C(C)(C)c2ccc(OCc3ccnc(N4CCC(CN5CCC(C6CCN(c7ccc8c(c7)n(C)c(=O)n8C7CCC(=O)NC7=O)CC6)CC5)CC4)n3)cc2)cc1C#N (stereo not drawn) [Compound 97 trifluoroacetate, 3-chloro-5-(2-(4-((2-(4-((1′-(1-(2,6-dioxopiperidin-3-yl)-3-methyl-2-oxo-2,3-dihydro-1H-benzo[d]imidazol-5-yl)-[4,4′-bipiperidin]-1-yl)methyl)piperidin-1-yl)pyrimidin-4-yl)methoxy)phenyl)propan-2-yl)-2-methoxybenzonitrile (Compound 97) trifluoroacetate] | – | 421 | 658 ± 133 | DC50 (full-length AR (AR-FL); [6]): 1180 nM; DC50 [4, 6]: 1070 nM
COc1c(Cl)cc(C(C)(C)c2ccc(OCc3ccnc(N4CCC(CN5CCC(C6CCN(c7ccc8c(c7)n(C)c(=O)n8C7CCC(=O)NC7=O)CC6)CC5)CC4)n3)cc2)cc1C#N (stereo not drawn) [Compound 97, 3-chloro-5-(2-(4-((2-(4-((1′-(1-(2,6-dioxopiperidin-3-yl)-3-methyl-2-oxo-2,3-dihydro-1H-benzo[d]imidazol-5-yl)-[4,4′-bipiperidin]-1-yl)methyl)piperidin-1-yl)pyrimidin-4-yl)methoxy)phenyl)propan-2-yl)-2-methoxybenzonitrile] | – | – | – | bioavailability [5]: > 15%
